Where a name gives a salt, the structure may show the parent alone.
The compounds below were run against T1, MASP-2 (CCP1-CCP2-SP) (Homo sapiens, UniProt O00187) (assay: Enzymatic Assay for MASP-2). Settings: fluorogenic substrate based on C2 cleavage site, room temperature, 20 mM HEPES pH 7.4.
T1 construct: 15 μL of Enzyme MASP-2 (CCP1-CCP2-SP) in Assay Buffer
Type: biochemical
Experimental: Enzymatic Assay for MASP-2
The MASP-2 assay utilizes a fluorogenic substrate, based on the cleavage site for its natural substrate C2. The assay is run at room temperature in an assay buffer containing 20 mM HEPES, pH 7.4, 140 mM NaCl and 0.1% Tween 20. Assay parameters are adjusted such that the assay is linear with respect to time, enzyme, and substrate concentrations. Under these optimized assays conditions, IC50 values are equivalent to Ki values, except in a few cases of “tight binding” inhibitors. Cases of “tight binding” or possible “slow binding” inhibitors are handled by the methods described in Copeland R. A. (2013) Evaluation of Enzyme Inhibitors in Drug Discovery. 2nd Ed., John Wiley and Sons, Inc., Chapters 5-7.
The MASP-2 assay protocol is carried out as follows. Test compounds are serially diluted in DMSO and then 100 nL of each dilution is transferred to the assay plate(s). 10 μL of Assay Buffer is added, followed by 15 μL of Enzyme MASP-2 (CCP1-CCP2-SP) in Assay Buffer. 15 μL of Substrate in Assay Buffer is then added and mixed to start the reactions. After 20 min at room temperature, 15 μL of a stop solution (0.1 M acetic acid) is added, mixed and the plates are read on a SpectraMax i3x Microplate Reader and exported as Excel files. Each assay plate included a “no inhibitor” (DMSO Only) control, a “no enzyme” control and a reference inhibitor control. % Activity values=100*(average test comp. fluorescence−average “no enzyme” fluorescence)/(average “DMSO only” fluorescence−average “no enzyme” fluorescence). IC50 and Ki values are very reproducible, falling well within ±2-fold.

T1 sequence (O00187 445-686 limits assumed): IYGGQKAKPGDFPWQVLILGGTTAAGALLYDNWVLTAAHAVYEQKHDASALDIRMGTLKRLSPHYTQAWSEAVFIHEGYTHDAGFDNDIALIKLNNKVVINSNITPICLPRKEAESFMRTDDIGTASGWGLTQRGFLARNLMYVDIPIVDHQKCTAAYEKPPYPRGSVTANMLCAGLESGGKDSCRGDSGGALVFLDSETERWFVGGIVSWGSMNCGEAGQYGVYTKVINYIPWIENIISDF
T1 sequence (O00187 298-444 partner limits assumed): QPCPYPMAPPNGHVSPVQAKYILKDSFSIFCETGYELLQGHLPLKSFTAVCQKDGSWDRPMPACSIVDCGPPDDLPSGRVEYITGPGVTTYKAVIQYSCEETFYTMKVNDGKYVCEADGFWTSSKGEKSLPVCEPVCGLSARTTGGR

How did the Ki turn out when Cc1nc(N)ccc1CNC(=O)Cn1c(C)ncc(NCCc2ccccc2)c1=O [Compound 2, N-((6-Amino-2-Methylpyridin-3-yl)Methyl)-2-(2-Methyl-6-Oxo-5-(Phenethylamino)Pyrimidin-1(6H)-yl)Acetamide, Trifluoroacetate] was run?
Its Ki is < 500 nM.

Cc1ncc(NCCc2ccccc2)c(=O)n1CC(=O)NCc1ccc2nc(N)[nH]c2c1 [Compound 3, N-((2-Amino-1H-benzo[d]imidazol-6-yl)methyl)-2-(2-methyl-6-oxo-5-(phenethylamino)pyrimidin-1(6H)-yl)acetamide trifluoroacetate] was tested. Which Ki did it give?
Its Ki is < 500 nM.

With O=C(Cn1c(-c2ccccc2)cnc(NCCCc2ccccc2)c1=O)NCc1cc2cnccc2[nH]1 [Compound 48, N-((1H-Pyrrolo[3,2-c]pyridin-2-yl)methyl)-2-(2-oxo-6-phenyl-3-((3-phenylpropyl)amino)pyrazin-1(2H)-yl)acetamide trifluoroacetate] as the compound, how does the Ki read?
The Ki was < 500 nM.

Which Ki does the source give for O=C(Cn1c(-c2ccccc2)cnc(NCC2(c3ccccc3)COC2)c1=O)NCc1cc2cnccc2[nH]1 [Compound 47, N-((1H-pyrrolo[3,2-c]pyridin-2-yl)methyl)-2-(2-oxo-6-phenyl-3-(((3-phenyloxetan-3-yl)methyl)amino)pyrazin-1(2H)-yl)acetamide trifluoroacetate] here?
The Ki was < 500 nM.

Cc1nc(N)ccc1CNC(=O)Cn1c(-c2cccnc2)cnc(NCCc2ccccc2)c1=O [Compound 18, N-((6-amino-2-methylpyridin-3-yl)methyl)-2-(2-oxo-3-(phenethylamino)-6-(pyridin-3-yl)pyrazin-1(2H)-yl)acetamide trifluoroacetate] was tested. Which Ki did it give?
The Ki was < 500 nM.

Cn1cc(-c2cnc(NCCc3ccccc3)c(=O)n2CC(=O)NCc2cc3c(s2)CNCC3)cn1 [Compound 79] was tested. Which Ki did it give?
Its Ki is < 500 nM.

Which Ki does the source give for O=C(Cn1c(-c2ccccc2)cnc(NCc2ccc(Cl)cc2)c1=O)NCc1cc2cnccc2[nH]1 [Compound 73, N-((1H-Pyrrolo[3,2-c]pyridin-2-yl)methyl)-2-(3-((4-chlorobenzyl)amino)-2-oxo-6-phenylpyrazin-1(2H)-yl)acetamide trifluoroacetate] here?
The Ki was < 500 nM.

With CSc1ncc(NCCc2ccccc2)c(=O)n1CC(=O)NCc1ccc2nc(N)[nH]c2c1 [Compound 5, N-((2-Amino-1H-Benzo[d]Imidazol-6-yl)Methyl)-2-(2-(Methylthio)-6-Oxo-5-(Phenethylamino)Pyrimidin-1(6H)-yl)Acetamide] as the compound, how does the Ki read?
Its Ki is < 500 nM.

For O=C(Cn1c(-c2ccccc2)cnc(NCC2(c3ccc(Cl)cc3)CC2)c1=O)NCc1cnc2c(c1)CNC2 [Compound 69, 2-(3-(((1-(4-Chlorophenyl)Cyclopropyl)Methyl)Amino)-2-Oxo-6-Phenylpyrazin-1(2H)-yl)-N-((6,7-Dihydro-5H-Pyrrolo[3,4-5]Pyridin-3-yl)Methyl)Acetamide Trifluoroacetate], which Ki is on record?
The Ki was < 500 nM.

COCCCNc1ncc(-c2ccccc2)n(CC(=O)NCc2cc3cnccc3[nH]2)c1=O [Compound 121, N-((1H-Pyrrolo[3,2-c]pyridin-2-yl)methyl)-2-(3-((3-methoxypropyl)amino)-2-oxo-6-phenylpyrazin-1(2H)-yl)acetamide trifluoroacetate] was tested. Which Ki did it give?
Its Ki is < 500 nM.

With COc1ccc(CNc2ncc(-c3ccccc3)n(CC(=O)NCc3cc4cnccc4[nH]3)c2=O)cc1 [Compound 150, N-((1H-Pyrrolo[3,2-c]pyridin-2-yl)methyl)-2-(3-((4-methoxybenzyl)amino)-2-oxo-6-phenylpyrazin-1(2H)-yl)acetamide] as the compound, how does the Ki read?
Its Ki is < 500 nM.

COc1cccc(CCNc2ncc(-c3ccccc3)n(CC(=O)NCc3cc4cnccc4[nH]3)c2=O)c1 [Compound 136, N-((1H-Pyrrolo[3,2-c]pyridin-2-yl)methyl)-2-(3-((3-methoxyphenethyl)amino)-2-oxo-6-phenylpyrazin-1(2H)-yl)acetamide] was tested. Which Ki did it give?
Its Ki is < 500 nM.

With COc1ccc(C2(CNc3ncc(-c4ccccc4)n(CC(=O)NCc4cc5cnccc5[nH]4)c3=O)CC2)cc1 [Compound 61, N-((1H-Pyrrolo[3,2-c]pyridin-2-yl)methyl)-2-(3-(((1-(4-methoxyphenyl)cyclopropyl)methyl)amino)-2-oxo-6-phenylpyrazin-1(2H)-yl)acetamide trifluoroacetate] as the compound, how does the Ki read?
The Ki was < 500 nM.

With O=C(Cn1c(-c2ccccc2)cnc(NCc2cc(F)cc(F)c2)c1=O)NCc1cc2cnccc2[nH]1 [Compound 154, N-((1H-Pyrrolo[3,2-c]pyridin-2-yl)methyl)-2-(3-((3,5-difluorobenzyl)amino)-2-oxo-6-phenylpyrazin-1(2H)-yl)acetamide] as the compound, how does the Ki read?
The Ki was < 500 nM.

How did the Ki turn out when O=C(Cn1c(-c2ccccc2)cnc(NCC2(c3ccccc3)CCOC2)c1=O)NCc1cc2cnccc2[nH]1 (stereo not drawn) [Compound 50, N-((1H-Pyrrolo[3,2-c]pyridin-2-yl)methyl)-2-(2-oxo-6-phenyl-3-(((3-phenyltetrahydrofuran-3-yl)methyl)amino)pyrazin-1(2H)-yl)acetamide trifluoroacetate] was run?
The Ki was < 500 nM.

With O=C(Cn1c(-c2ccccc2)cnc(NCC2(c3ccc(Cl)cc3)CC2)c1=O)NCc1cc2cnccc2[nH]1 [Compound 57, N-((1H-Pyrrolo[3,2-c]pyridin-2-yl)methyl)-2-(3-(((1-(4-chlorophenyl)cyclopropyl)methyl)amino)-2-oxo-6-phenylpyrazin-1(2H)-yl)acetamide trifluoroacetate] as the compound, how does the Ki read?
The Ki was < 500 nM.

For Cn1cc(-c2cnc(NCCc3ccccc3)c(=O)n2CC(=O)NCc2cnc3[nH]cc(Cl)c3c2)cn1 [Compound 81, N-((3-Chloro-1H-Pyrrolo[2,3-b]Pyridin-5-yl)Methyl)-2-(6-(1-Methyl-1H-Pyrazol-4-yl)-2-Oxo-3-(Phenethylamino)Pyrazin-1(2H)-yl)Acetamide], which Ki is on record?
Its Ki is 2500 to 10000 nM.

For Cn1cc(-c2cnc(NCCc3ccccc3)c(=O)n2CC(=O)NCc2cc3cnccc3s2)cn1 [Compound 133, 2-(6-(1-Methyl-1H-Pyrazol-4-yl)-2-Oxo-3-(Phenethylamino)Pyrazin-1(2H)-yl)-N-(Thieno[3,2-c]Pyridin-2-Ylmethyl)Acetamide], which Ki is on record?
Its Ki is < 500 nM.

With CCCCOc1cnc(NCCc2ccccc2)c(=O)n1CC(=O)NCc1cc2cnccc2[nH]1 [Compound 162, N-((1H-Pyrrolo[3,2-c]Pyridin-2-yl)Methyl)-2-(6-Butoxy-2-Oxo-3-(Phenethylamino)Pyrazin-1(2H)-yl)Acetamide] as the compound, how does the Ki read?
Its Ki is < 500 nM.

With Cc1nn(C)cc1-c1cnc(NCCc2ccccc2)c(=O)n1CC(=O)NCc1cc2cnccc2[nH]1 [Compound 104, N-((1H-Pyrrolo[3,2-c]pyridin-2-yl)methyl)-2-(6-(1,3-dimethyl-1H-pyrazol-4-yl)-2-oxo-3-(phenethylamino)pyrazin-1(2H)-yl)acetamide] as the compound, how does the Ki read?
Its Ki is < 500 nM.

With C[C@H](Nc1ncc(-c2ccccc2)n(CC(=O)NCc2cc3cnccc3[nH]2)c1=O)c1ccccc1 [Compound 156, (S)-N-((1H-Pyrrolo[3,2-c]pyridin-2-yl)methyl)-2-(2-oxo-6-phenyl-3-((1-phenylethyl)amino)pyrazin-1(2H)-yl)acetamide] as the compound, how does the Ki read?
Its Ki is < 500 nM.

For Cc1ccc(C)c(-c2cnc(NCCc3ccccc3)c(=O)n2CC(=O)NCc2cc3cnccc3[nH]2)c1 [Compound 108, N-((1H-Pyrrolo[3,2-c]pyridin-2-yl)methyl)-2-(6-(2,5-dimethylphenyl)-2-oxo-3-(phenethylamino)pyrazin-1(2H)-yl)acetamide], which Ki is on record?
Its Ki is < 500 nM.

With O=C(Cn1c(-c2cn[nH]c2)cnc(NCCc2ccccc2)c1=O)NCc1cc2cnccc2[nH]1 [Compound 102, N-((1H-Pyrrolo[3,2-c]pyridin-2-yl)methyl)-2-(2-oxo-3-(phenethylamino)-6-(1H-pyrazol-4-yl)pyrazin-1(2H)-yl)acetamide] as the compound, how does the Ki read?
Its Ki is < 500 nM.

For O=C(Cn1c(-c2ccccc2)cnc(NCC2(c3ccccc3F)COC2)c1=O)NCc1cc2cnccc2[nH]1 [Compound 62, N-((1H-Pyrrolo[3,2-c]pyridin-2-yl)methyl)-2-(3-(((3-(2-fluorophenyl)oxetan-3-yl)methyl)amino)-2-oxo-6-phenylpyrazin-1(2H)-yl)acetamide trifluoroacetate], which Ki is on record?
The Ki was < 500 nM.

For O=C(Cn1c(-c2ccccc2)cnc(NCCC(F)F)c1=O)NCc1cc2cnccc2[nH]1 [Compound 127, N-((1H-Pyrrolo[3,2-c]pyridin-2-yl)methyl)-2-(3-((3,3-difluoropropyl)amino)-2-oxo-6-phenylpyrazin-1(2H)-yl)acetamide trifluoroacetate], which Ki is on record?
The Ki was < 500 nM.

With CNc1ncc(-c2ccccc2)n(CC(=O)NCc2cc3cnccc3[nH]2)c1=O [Compound 148, N-((1H-Pyrrolo[3,2-c]pyridin-2-yl)methyl)-2-(3-(methylamino)-2-oxo-6-phenylpyrazin-1(2H)-yl)acetamide] as the compound, how does the Ki read?
Its Ki is < 500 nM.

With O=C(Cn1c(-c2ccccc2)cnc(NCC2(c3ccc(F)cc3)COC2)c1=O)NCc1cc2cnccc2[nH]1 [Compound 55, N-((1H-Pyrrolo[3,2-c]pyridin-2-yl)methyl)-2-(3-(((3-(4-fluorophenyl)oxetan-3-yl)methyl)amino)-2-oxo-6-phenylpyrazin-1(2H)-yl)acetamide trifluoroacetate] as the compound, how does the Ki read?
The Ki was < 500 nM.

Source: US12110288B2, “MASP-2 inhibitors and methods of use” (Omeros Corporation, priority 2019, dated 2024)
